Columns and labels:
Male Swiss Webster mice [1] = experiment: Bone densitometry (DEXA) in prednisolone-treated mice; format: in vivo, mouse; settings: for Global BMD (% change) / Hindquarters BMD (% change) / Spinal BMD (% change): 27 days
From the text: (§1) Bone mineral density (BMD) determinations were done at two week intervals to identify the peak adult bone mass of the mice, which was reached between 5 and 6 months-of-age (9). Animals at peak bone mass were used to avoid obscuring the negative impact of glucocorticoid excess on bone mineral density by the confounding effects of increased linear and radial growth. Before the experiment began, bone mineral density measurements were repeated to allocate the animals into groups (n=4-5) with equivalent spinal density values. […] These doses were administered for 27 days by subcutaneous implantation of slow-release pellets (Innovative Research of America, Sarasota, Fla.). Bone mineral density measurements were obtained at the beginning of the experiment and 27 days post-implantation. For dynamic histomorphometric measurements, tetracycline HCl (30 mg/kg body weight) was given intraperitoneally 17 and 23 days post-implantation. After 27 days, the mice were sacrificed, serum and urine specimens were taken, bone marrow aspirates were obtained from the right femur for ex vivo marrow cell cultures and the left femur and lumbar vertebrae were prepared for histomorphometric analysis. Livers were examined for fatty infiltration as a sign of prednisolone toxicity. The weight of the seminal vesicles (mg/100 g body weight) was used as an index of the androgen status of the animals (12). To help interpret these measurements, a separate group of animals was orchidectomized (n=5).
Dual-energy X-ray absorptiometry (DEXA) was used to determine global (whole body minus the head), spinal and hindquarters bone mineral density in live mice (7,9). The scans done at 27 days after pellet implantation were analyzed using the ‘Compare’ technique, in which the evaluation is based on the exact positioning and region of interest placement of the baseline scan. […] Over the 18 months, the coefficient of variation for the bone mineral density of a plastic-embedded whole mouse skeleton was 3.0% (n=146).

Male Swiss Webster mice [2] = experiment: Serum and urine biochemical measurements (osteocalcin, deoxypyridinoline); format: in vivo, mouse; settings: 27 days; for Osteocalcin: serum; for Deoxypyridinoline: urine
Experimental: as §1, with “Animals” for “Bone mineral density (BMD) determinations were done at two week intervals to identify the peak adult bone mass of the mice, which was reached between 5 and 6 months-of-age (9). Animals”
Serum osteocalcin was measured by radioimmunoassay using a goat anti-murine osteocalcin and murine osteocalcin as tracer and standard (Biomedical Technologies, Stoughton, Mass.). Urinary free deoxypyridinoline excretion was determined by a microtiter competitive enzyme immunoassay (Pyrilinks-D, Metra Biosystems, Mountain View, Calif.) and was expressed as a ratio to the urinary creatinine.

[3] = Food intake, body weight, seminal vesicle weight and hepatic fatty infiltration; format: in vivo, mouse; settings: mice; for Seminal Vesicle Weight: index of androgen status
Experimental: Male Swiss Webster mice (Charles River Laboratories, Stone Ridge, N.Y.) were electronically tagged (Biomedic Data System Inc., Maywood, N.J.) and kept in plastic cages (3-5 animals per cage) under standard laboratory conditions with a 12 hr dark, 12 hr light cycle and a constant temperature of 20° C. and humidity of 48%. All mice were fed on a standard rodent diet (Agway RMH 3000, Arlington Heights, Ill.) containing 22% protein, 5% fat, 5% fiber, 6% ash, 3.5 Kcal/g, 1.0 IU vitamin D3/g, 0.97% calcium and 0.85% phosphorus with water ad libitum. The animals and food supply were weighed at one week intervals throughout the experiment. Studies were approved by the UAMS Division of Laboratory and Animal Medicine.
as §1

[4] = system: murine vertebral cancellous bone; experiment: Vertebral cancellous bone histomorphometry after 27 days
Experimental: as §1, with “Animals” for “Bone mineral density (BMD) determinations were done at two week intervals to identify the peak adult bone mass of the mice, which was reached between 5 and 6 months-of-age (9). Animals”
(§2) The distal femora and lumbar vertebrae were fixed in 4° C. Millonig's phosphate-buffered 10% formalin, pH 7.4, embedded undecalcified in methyl methacrylate and stained (7,9,13). The histomorphometric examination was done with a computer and digitizer tablet (OsteoMetrics Inc. Version 3.00, Atlanta, Ga.) interfaced to a Zeiss Axioscope (Carl Zeiss, Inc., Thornwood, N.Y.) with a drawing tube attachment. All cancellous measurements were two-dimensional, confined to the secondary spongiosa and made at ×400 magnification (numerical aperture 0.75). The terminology and units used are those recommended by the Histomorphometry Nomenclature Committee of the American Society for Bone and Mineral Research (14). The trabecular width and osteoid width were measured directly. Trabecular spacing and number were calculated (15). Only TRAPase-positive cells were included in the osteoclast perimeter. The rate of bone formation (μm^2/μm/d) and turnover (%/d) were calculated (7).

[5] = system: CFU-F, CFU-OB and osteoclast progenitors in bone marrow cells; experiment: Osteoblastogenesis and osteoclastogenesis in ex vivo bone marrow cell cultures; design: species or system mouse; settings: 27 d
Experimental: One femur from each mouse was flushed with 5 ml of phenol red-free αMEM (Gibco BRL, Gaithersburg, Md.) containing 10% FBS (Hyclone, Logan, Utah) to obtain marrow cells. After the cells were rinsed and resuspended to obtain a single cell suspension, the nucleated cell count was determined using a Coulter Counter. Cells from each animal were cultured separately.
The number of colony-forming unit-fibroblast (CFU-F) and CFU-osteoblast (CFU-OB) present in the bone marrow preparations were determined (16-18). Briefly, cells were seeded at 1.5×10^6 per 10 cm^2 well for the determination of CFU-F number and maintained for 10 days in phenol red-free αMEM containing 15% preselected FBS, 50 μM ascorbic acid and 10 mM β-glycerophosphate (Sigma Chemical Co, St. Louis, Mo.) with one-half of the medium replaced after 5 days. After fixation in neutral buffered formalin and staining with hematoxylin, colonies containing a minimum of 20 fibroblastoid cells were enumerated. Cells were seeded at 2.5×10^6 cells per 10 cm^2 well for the determination of CFU-OB number and cultured for 25-28 days as described above for CFU-F. After fixation in 50% ethanol and 18% formaldehyde, cultures were stained using Von Kossa's method to visualize and enumerate colonies containing mineralized bone matrix.
Osteoclast formation in bone marrow cultures was assessed in replicate cultures (4-6 from each animal) maintained for 9 days in the presence of αMEM, 10% FBS and 10 nM 1.25(OH)2D3 (7). Briefly, marrow cells were cultured at 1.5×10^6 per 2 cm^2 well on 13 mm round Thermanox disks and maintained for 8 days in the presence of 10% FBS in αMEM supplemented with 10^−8 M 1.25(OH)2D3 (provided by Dr. Milan Uskokovic, Hoffman-LaRoche, Nutley, N.J.). At the end of the experiment, cells were processed for the autoradiographic detection of bound ^125I-calcitonin (^125I-CT) and stained for tartrate-resistant acid phosphatase. […] Therefore, mononucleated and multinucleated cells that both bind ^125I-CT and express TRAPase were designated as osteoclastic cells. The number of osteoclasts formed in this assay is a reflection of the number of osteoclast progenitors present in the bone marrow aspirate and the number of stromal/osteoblastic support cells that form during the culture period.
The number of CFU-F colonies, CFU-OB colonies, and osteoclastic cells formed from the marrow cells of each animal was expressed as the number per femur, which was calculated by multiplying the number of colonies or osteoclasts obtained per 10^6 cells seeded at the initiation of the cultures by the total number of marrow cells obtained from the animal.

[6] = system: murine osteoblasts and osteocytes; experiment: Apoptosis (TUNEL) in undecalcified murine bone sections; format: in vivo, mouse
Experimental: Sections were mounted on silane-coated glass slides (Scientific Device Lab, Inc., Des Plains, Ill.), deplasticized and incubated in 10 mM citrate buffer, pH 7.6, in a microwave oven at 98° C. for 5 minutes. Slides were then incubated with 0.5% pepsin for 30 minutes at 37° C. Apoptotic cells were detected by the TUNEL reaction (transferase-mediated biotin-dUTP nick end-labeling) using Klenow terminal deoxynucleotidyl transferase (Oncor, Gaithersburg, Md.) in sections counterstained with 1% methyl green. The TUNEL reaction was noted within cell nuclei and the cells whose nuclei were clearly brown from the peroxidase-labeled anti-digoxigenin antibody instead of the blue-green from the methyl green were interpreted as positive. Plastic-embedded sections of weaned rat mammary tissue were used as a positive control. Negative controls were made by omitting the transferase. Morphological changes characteristic of apoptosis were examined carefully to minimize ambiguity regarding the interpretation of results. With these precautions, TUNEL has been unequivocally associated with apoptosis (19). […] Apoptosis was also assessed in transiliac bone biopsy specimens taken from two patients with glucocorticoid-induced osteoporosis (receiving 15 to 25 mg/d of prednisone for 3 to 6 yr) and from 12 age-, sex- and race-matched controls (13). Two longitudinal sections were examined from each patient and control subject. Osteoblasts were identified as cuboidal cells lining the osteoid-covered trabecular perimeter (7,9,13). Osteocytes were identified inside lacunae in mineralized bone.

[7] = system: murine vertebral cancellous bone; format: in vivo, mouse
Experimental: as §2
To directly establish whether glucocorticoids initially accelerate bone resorption in the mouse, the vertebral cancellous bone histology were examined in an additional group of somewhat younger mice (5-mo-old) after 7 days administration of the higher dose of prednisolone or placebo (n=5).

[8] = higher dose (2.1 mg/kg/d), 27 days, vs placebo

Global BMD (% change) (Male Swiss Webster mice [1]; 0.7 mg/kg/d s.c. slow-release pellet): −5.0 ± 2.2 % change | Hindquarters BMD (% change) (Male Swiss Webster mice [1]; 0.7 mg/kg/d): −3.8 ± 8.0 % change | Spinal BMD (% change) (Male Swiss Webster mice [1]; 0.7 mg/kg/d): −6.8 ± 3.2 % change | Global BMD (% change) (Male Swiss Webster mice [1]; 2.1 mg/kg/d s.c. slow-release pellet): −6.6 ± 1.9 % change | Hindquarters BMD (% change) (Male Swiss Webster mice [1]; 2.1 mg/kg/d): −3.4 ± 6.9 % change | Spinal BMD (% change) (Male Swiss Webster mice [1]; 2.1 mg/kg/d): −8.7 ± 3.5 % change | Effect on bone mineral density (Male Swiss Webster mice [1]; pellets releasing 0.5 mg/kg/d (the no effect dose)): did not decrease bone mineral density | Osteocalcin (Male Swiss Webster mice [2]; 0.7 mg/kg/d): 63.0 ± 27.7 µg/L | Osteocalcin (Male Swiss Webster mice [2]; 2.1 mg/kg/d): 46.4 ± 13.8 µg/L | Deoxypyridinoline (Male Swiss Webster mice [2]; 0.7 mg/kg/d): 63.6 ± 14.7 μM/mM creatinine | Deoxypyridinoline (Male Swiss Webster mice [2]; 2.1 mg/kg/d): 81.5 ± 11.3 μM/mM creatinine | Bone area/Tissue area ([4]; 0.7 mg/kg/d, 27 days): 6.9 ± 2.1% | Bone area/Tissue area ([4]; 2.1 mg/kg/d, 27 days): 6.3 ± 1.7 % | Active lifespan of an osteoblast ([4]; mouse, in vivo): about 260 hours | Increase in empty erosion cavities or reversal perimeter ([4]; mouse, in vivo): 3 fold | Wall width ([4]; mouse, in vivo): about 8 μm | Osteoblast perimeter ([7]; mouse, in vivo): 2.1±1.1% | Osteoclast perimeter ([7]; mouse, in vivo): 1.00±0.41%
SMILES: C[C@]12C=CC(=O)C=C1CC[C@@H]1[C@@H]2[C@@H](O)C[C@@]2(C)[C@H]1CC[C@]2(O)C(=O)CO [prednisolone]
Effect on bone mineral density (Male Swiss Webster mice [1]; 1.4 mg/kg/d, pilot studies): invariably causes densitometric evidence of bone loss | Decrease of serum osteocalcin compared to placebo (Male Swiss Webster mice [2]): more than 50% | Body Weight ([3]; 0.7 mg/kg/d): 33.8 ± 4.3 g | Food Intake ([3]; 0.7 mg/kg/d): 3.6 ± 0.2 g/day | Seminal Vesicle Weight ([3]; 0.7 mg/kg/d): 92.7 ± 8.7 mg/100 g body weight | Body Weight ([3]; 2.1 mg/kg/d): 32.2 ± 4.2 g | Food Intake ([3]; 2.1 mg/kg/d): 3.7 ± 0.4 g/day | Seminal Vesicle Weight ([3]; 2.1 mg/kg/d): 83.1 ± 6.9 mg/100 g body weight | Hepatic fatty infiltration ([3]; sign of prednisolone toxicity, 27 days): absent | Decrease in mineralizing perimeter ([4]; 27 days): 26% | Decline in mineral appositional rate ([4]; higher dose (2.1 mg/kg/d), 27 days): 40% | Decline in trabecular width [4, 8]: 23% | Decline in vertebral cancellous bone area [4, 8]: 40% | Decrease in osteoid area ([4]; higher dose, 27 days): 29% | Decrease in osteoid perimeter ([4]; higher dose, 27 days): 34% | Decrease in osteoid width ([4]; higher dose, 27 days): 27% | Decrease in rate of bone formation ([4]; higher dose, 27 days): 53% | Decline in mineral appositional rate ([4]; lower dose (0.7 mg/kg/d), 27 days): 22% | CFU-F colonies ([5]; higher dose (2.1 mg/kg/d), placebo 1250±374, NS): 698±104 number per femur | Decrease in number of CFU-OB colonies ([5]; higher dose): 86% | Decrease in number of osteoclastic cells ([5]; higher dose): 65% | CFU-OB colonies ([5]; higher dose, placebo 375±257): 54±14 number per femur | Osteoclastic cells formed in response to 1.25(OH)2D3 ([5]; higher dose, placebo 1387±920): 492±311 number per femur | Apoptotic hypertrophic chondrocytes and bone marrow cells ([6]; either dose, mice): increase | Increase in osteoblast apoptosis in vertebrae ([6]; higher dose, 27 days, vs controls): 3 fold | Apoptotic osteocytes in femoral metaphyseal cortical bone ([6]; higher dose, 27 days, 131 osteocytes, none in controls): 28% | Osteoblast apoptosis in vertebral cancellous bone ([6]; higher dose, 27 days, controls 0.66%±0.07): 2.03%±0.34 | fAp, fraction of osteoblasts that undergoes apoptosis ([6]; higher dose, estimate with tAp doubled, placebo 0.6): 0.9 | Prevalence of osteoblast apoptosis (fraction) ([6]; higher dose, placebo 0.0066): 0.0203 | Osteoclast apoptosis ([6]; mice, 27 days): not observed | Decrease in osteoblast perimeter ([7]; higher dose, 7 days): 59% | Increase in osteoclast perimeter ([7]; higher dose, 7 days): 96%

Reference: patent US6660468B1, “Vitro and in vivo models for screening compounds to prevent glucocorticoid-induced bone destruction” (Board of Trustees of the University of Arkansas, priority 1998, dated 2003)
